One data set has as its target Cytochrome P450 3A4 (Homo sapiens, UniProt P08684). Nature of the data set: Inhibition of CYP3A4. Format: ADME.
Data set [1] concerns the target T1, Voltage-gated inwardly rectifying potassium channel KCNH2 (Homo sapiens, UniProt Q12809). Nature of the data set: Displacement of [3H]dofetolide from human ERG channel expressed in HEK293 cells at 37 degC by liquid scintillation assay. The data set is classed as cell-based.
For a further data set, the species on record is Homo sapiens. Nature of the data set: Selectivity for human muscarinic M1 receptor over human histamine H1 receptor.
Another data set deals with Histamine H1 receptor (Homo sapiens, UniProt P35367). Nature of the data set: Displacement of [3H]pyrilamine from human histamine H1 receptor expressed in CHO Flp-In cells by liquid scintillation assay. Format: cell-based. Conditions: read-out: Ki. On the technique in general: Displacement assays read how much labelled ligand stays bound in the presence of the test substance.
Sequence of Histamine H1 receptor (P35367 whole entry): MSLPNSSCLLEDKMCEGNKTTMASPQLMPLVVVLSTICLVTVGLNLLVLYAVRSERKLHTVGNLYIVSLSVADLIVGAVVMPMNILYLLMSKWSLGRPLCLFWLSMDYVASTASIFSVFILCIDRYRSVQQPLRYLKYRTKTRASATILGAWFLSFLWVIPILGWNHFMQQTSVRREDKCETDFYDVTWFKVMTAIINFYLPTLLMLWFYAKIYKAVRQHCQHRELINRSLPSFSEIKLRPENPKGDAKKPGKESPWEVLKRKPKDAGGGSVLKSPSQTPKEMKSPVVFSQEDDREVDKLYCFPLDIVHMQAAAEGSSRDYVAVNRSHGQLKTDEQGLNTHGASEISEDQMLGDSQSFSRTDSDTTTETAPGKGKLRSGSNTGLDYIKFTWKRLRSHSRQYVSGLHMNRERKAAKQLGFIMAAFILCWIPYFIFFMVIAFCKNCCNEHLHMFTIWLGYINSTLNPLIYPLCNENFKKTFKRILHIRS

For the next data set, the target named is Cytochrome P450 2D6 (Homo sapiens, UniProt P10635). Nature of the data set: Inhibition of CYP2D6. Format: ADME.
Sequence of Cytochrome P450 2D6 (P10635 whole entry): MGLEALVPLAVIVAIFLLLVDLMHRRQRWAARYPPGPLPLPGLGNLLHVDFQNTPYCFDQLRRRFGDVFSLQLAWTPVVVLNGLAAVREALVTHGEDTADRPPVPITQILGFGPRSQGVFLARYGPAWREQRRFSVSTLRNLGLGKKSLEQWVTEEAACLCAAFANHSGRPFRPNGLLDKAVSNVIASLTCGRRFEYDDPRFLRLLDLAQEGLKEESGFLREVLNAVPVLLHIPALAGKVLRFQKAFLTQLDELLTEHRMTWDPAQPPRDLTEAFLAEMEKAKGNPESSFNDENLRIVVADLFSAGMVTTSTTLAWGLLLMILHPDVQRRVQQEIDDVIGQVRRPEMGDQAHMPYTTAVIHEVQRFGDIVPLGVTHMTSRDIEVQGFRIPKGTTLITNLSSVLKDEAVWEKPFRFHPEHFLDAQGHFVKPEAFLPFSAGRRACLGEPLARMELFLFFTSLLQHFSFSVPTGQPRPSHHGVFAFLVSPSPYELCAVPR
Data set [2] has as its target T2, Muscarinic acetylcholine receptor M1 (Homo sapiens, UniProt P11229).
T2 sequence (P11229 whole entry): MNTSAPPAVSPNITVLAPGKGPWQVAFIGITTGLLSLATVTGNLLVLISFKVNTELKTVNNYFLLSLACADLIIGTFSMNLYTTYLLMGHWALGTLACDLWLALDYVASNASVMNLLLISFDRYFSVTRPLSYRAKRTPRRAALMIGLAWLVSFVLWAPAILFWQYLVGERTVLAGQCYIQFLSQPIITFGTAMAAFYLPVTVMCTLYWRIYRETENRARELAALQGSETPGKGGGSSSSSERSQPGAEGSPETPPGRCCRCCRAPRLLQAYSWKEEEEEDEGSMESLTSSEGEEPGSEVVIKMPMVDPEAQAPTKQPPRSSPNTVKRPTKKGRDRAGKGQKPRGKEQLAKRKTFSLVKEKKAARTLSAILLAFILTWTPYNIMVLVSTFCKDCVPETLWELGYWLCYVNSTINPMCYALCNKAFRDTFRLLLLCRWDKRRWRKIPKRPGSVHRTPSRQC
Nature of the data set: Displacement of [3H]N-methyl Scopolamine from human muscarinic M1 receptor expressed in CHO Flp-In cells by liquid scintillation assay. The data set is classed as cell-based. Conditions: read-out: Ki.

The test system of data set [3] is Rattus norvegicus. Nature of the data set: Antihistamine activity in Wistar rat EEG/EMG model assessed as rapid eye movement sleep stage at 30 mg/kg, po administered during activity portion of diurnal cycle 6 hrs after lights-off measured in 4 hrs. The data set is classed as functional.
Data set [4] concerns Rattus norvegicus. Nature of the data set: Antihistamine activity in Wistar rat EEG/EMG model assessed as rapid eye movement sleep stage latency at 30 mg/kg, po administered during activity portion of diurnal cycle 6 hrs after lights-off measured in 4 hrs. Format: functional.
Data set [5] concerns Rattus norvegicus. Nature of the data set: Antihistamine activity in Wistar rat EEG/EMG model assessed as non rapid eye movement sleep stage latency at 30 mg/kg, po administered during activity portion of diurnal cycle 6 hrs after lights-off measured in 4 hrs. The data set is classed as functional.
The test system of data set [6] is Rattus norvegicus. Nature of the data set: Antihistamine activity in Wistar rat EEG/EMG model assessed as longest 3 REM bouts at 30 mg/kg, po administered during activity portion of diurnal cycle 6 hrs after lights-off measured in 6 hrs. Format: functional.
Data set [7] relates to Rattus norvegicus. Nature of the data set: Antihistamine activity in Wistar rat EEG/EMG model assessed as increase in time spent in non rapid eye movement sleep stage at 30 mg/kg, po administered during activity portion of diurnal cycle 6 hrs after lights-off measured in 4 hrs. Format: functional.
The nature of data set [8]: Ratio of drug level in brain to plasma in rat at 30 mg/kg, po after 4 hrs. On the set-up: dose 30 mg/kg, route oral. The data set is classed as ADME, organism-based.
The test system of the next data set is Plasma. Nature of the data set: Drug level in rat plasma assessed per gram of tissue at 1 mg/kg, iv after 2 hrs. As to conditions: in vivo. The data set is classed as ADME, organism-based. Further details: dose 1 mg/kg, route intravenous.
Data set [9] relates to Brain. Nature of the data set: Biodistribution in rat brain at 1 mg/kg, iv after 2 hrs in presence of triprolidine. Format: ADME, organism-based. As to conditions: in vivo. On the set-up: dose 1 mg/kg, route intravenous.
Data set [10] addresses T1, Voltage-gated inwardly rectifying potassium channel KCNH2. Nature of the data set: Inhibition of human ERG channel expressed in HEK293 cells by patch clamp assay. Format: cell-based. A general note: In patch-clamp work, channel activity is measured electrically.
The test system of data set [11] is Brain. Nature of the data set: Biodistribution in rat brain assessed per gram of tissue at 1 mg/kg, iv after 2 hrs. On the set-up: dose 1 mg/kg, route intravenous. The data set is classed as ADME, organism-based. Conditions: in vivo.
Data set [12] can be described thus: Ratio of drug level in brain to plasma in rat at 1 mg/kg, iv after 2 hrs. Format: ADME, organism-based. On the set-up: dose 1 mg/kg, route intravenous.
Data set [13] is described as follows: Bioavailability in Sprague-Dawley rat at 5 mg/kg, iv. Format: ADME, organism-based. As to conditions: in vivo, read-out: Drug uptake.
Data set [14] can be described thus: Ratio of drug level in brain to plasma in rat at 10 mg/kg, po after 4 hrs. Format: ADME, organism-based. Further details: dose 10 mg/kg, route oral.
Data set [15] in a line: Clearance in Sprague-Dawley rat at 10 mg/kg, po. The data set is classed as ADME, organism-based. Further details: dose 10 mg/kg, route oral. Conditions: in vivo.
Data set [16] relates to Rattus norvegicus. Nature of the data set: Antihistamine activity in Wistar rat EEG/EMG model assessed as longest 3 NREM bouts at 30 mg/kg, po administered during activity portion of diurnal cycle 6 hrs after lights-off measured in 6 hrs. Format: functional.
The nature of data set [17]: Drug level in Sprague-Dawley rat plasma at 10 mg/kg, po after 4 hrs. As to conditions: read-out: Drug uptake.
Data set [18] has as its system Brain. Nature of the data set: Biodistribution in Sprague-Dawley rat brain at 10 mg/kg, po assessed per gram of tissue after 4 hrs. Conditions: in vivo.

Bounds are passed on as bounds.

Sequence of Cytochrome P450 3A4 (P08684 whole entry): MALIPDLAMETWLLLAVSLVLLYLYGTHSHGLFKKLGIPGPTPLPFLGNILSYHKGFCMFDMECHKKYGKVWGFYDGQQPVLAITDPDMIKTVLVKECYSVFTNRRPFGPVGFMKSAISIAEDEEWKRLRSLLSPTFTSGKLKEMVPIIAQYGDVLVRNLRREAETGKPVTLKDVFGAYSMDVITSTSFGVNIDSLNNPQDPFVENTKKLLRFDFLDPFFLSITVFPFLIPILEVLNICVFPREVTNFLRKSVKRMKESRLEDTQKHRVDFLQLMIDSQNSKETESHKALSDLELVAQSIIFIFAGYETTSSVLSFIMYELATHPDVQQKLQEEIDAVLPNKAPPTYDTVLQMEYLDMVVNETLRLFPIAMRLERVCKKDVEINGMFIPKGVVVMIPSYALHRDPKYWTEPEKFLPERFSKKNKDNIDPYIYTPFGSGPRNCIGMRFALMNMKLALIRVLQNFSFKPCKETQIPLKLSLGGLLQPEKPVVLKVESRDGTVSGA
T1 sequence (Q12809 whole entry): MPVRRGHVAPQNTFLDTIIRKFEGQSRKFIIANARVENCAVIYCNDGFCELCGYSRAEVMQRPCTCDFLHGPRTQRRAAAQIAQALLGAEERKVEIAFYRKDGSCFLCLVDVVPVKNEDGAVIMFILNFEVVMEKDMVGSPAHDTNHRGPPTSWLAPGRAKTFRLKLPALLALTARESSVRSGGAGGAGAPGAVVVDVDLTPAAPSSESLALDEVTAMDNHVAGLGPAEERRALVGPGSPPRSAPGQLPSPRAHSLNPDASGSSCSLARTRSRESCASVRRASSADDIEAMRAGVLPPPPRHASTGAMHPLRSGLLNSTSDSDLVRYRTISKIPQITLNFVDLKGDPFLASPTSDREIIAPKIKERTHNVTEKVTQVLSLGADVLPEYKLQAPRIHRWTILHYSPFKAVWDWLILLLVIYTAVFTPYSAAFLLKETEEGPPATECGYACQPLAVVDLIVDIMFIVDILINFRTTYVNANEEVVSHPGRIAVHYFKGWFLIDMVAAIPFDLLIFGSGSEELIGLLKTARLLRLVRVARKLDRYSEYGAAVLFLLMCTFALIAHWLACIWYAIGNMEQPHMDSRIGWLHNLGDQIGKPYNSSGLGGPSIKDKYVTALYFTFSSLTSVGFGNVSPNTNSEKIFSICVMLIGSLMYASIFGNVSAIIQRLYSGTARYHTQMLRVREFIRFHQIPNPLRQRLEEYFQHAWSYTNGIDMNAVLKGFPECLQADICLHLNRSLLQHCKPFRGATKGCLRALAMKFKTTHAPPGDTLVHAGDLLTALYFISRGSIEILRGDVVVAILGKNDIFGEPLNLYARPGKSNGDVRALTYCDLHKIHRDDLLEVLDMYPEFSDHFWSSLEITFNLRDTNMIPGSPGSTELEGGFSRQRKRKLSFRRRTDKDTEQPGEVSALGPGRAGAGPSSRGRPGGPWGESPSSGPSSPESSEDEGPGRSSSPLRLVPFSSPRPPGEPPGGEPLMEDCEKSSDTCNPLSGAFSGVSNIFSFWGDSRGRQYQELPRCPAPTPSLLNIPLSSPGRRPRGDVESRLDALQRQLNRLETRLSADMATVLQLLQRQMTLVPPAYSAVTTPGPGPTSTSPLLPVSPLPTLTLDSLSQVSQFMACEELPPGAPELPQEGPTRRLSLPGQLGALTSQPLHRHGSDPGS

For the molecule `Cc1ccc(Cn2c(N3CCC(N(C)C)CC3)nc3ccccc32)cc1`, the figures for the IC50 against Cytochrome P450 3A4 and at Cytochrome P450 2D6 (read-out: IC50) were greater than 5000 nM and 7210 nM, respectively. The Ki worked out at 73 nM in data set [1] and 1.5 nM at Histamine H1 receptor. In the data set filed under Homo sapiens, the Selectivity ratio was greater than 1000.
Turning to `CNC1CCN(c2nc3ccccc3n2Cc2ccc(F)cc2)CC1`, the figures for the Ki (on Histamine H1 receptor; in data set [2]) were 2.4 nM and 988 nM, respectively. Besides, on Cytochrome P450 2D6, the IC50 was found to be 6660 nM.
As for `Cc1ccc(-c2nc3ccc(C)cn3c2CC(=O)N(C)C)cc1` [ZOLPIDEM], the Activity amounted to 0.4% in the data set on Rattus norvegicus [3] and 48.3% with Rattus norvegicus [7]. For the same molecule, the Time in the data set with Rattus norvegicus [4] is 186 min; in the data set on Rattus norvegicus [5], 7 min; in the data set on Rattus norvegicus [6], 1.4 min.
As for `CN(c1ncccn1)C1CCN(c2nc3ccccc3n2Cc2ccc(F)cc2)CC1`, the inhibition constant Ki at Histamine H1 receptor was 75.2 nM; in [2], greater than 10000 nM. The molecule also yielded an IC50 at Cytochrome P450 2D6 of 1040 nM.
For `Cc1cnn(C2CCN(c3nc4ccccc4n3Cc3ccc(F)cc3)CC2)c1`, in [8], the concentration ratio (Kp) at 4 h came out at 2.3.
`Fc1ccc(Cn2c(N3CCC(NCC4CCOCC4)CC3)nc3ccccc32)cc1`: the half-inhibitory concentration (IC50) against Cytochrome P450 3A4 was greater than 5000 nM; on Cytochrome P450 2D6 (read-out: IC50), 12100 nM. Moreover, the figures for the inhibition constant Ki (in data set [1]; at Histamine H1 receptor) were 426 nM and 4.5 nM, respectively. Also, the Selectivity ratio in the data set listed under Homo sapiens was greater than 1000.
Take `CN(CCc1ccccc1)C1CCN(c2nc3ccccc3n2Cc2ccc(F)cc2)CC1`: the values for the Ki (at Histamine H1 receptor; in data set [2]) were 2.4 nM and 89 nM, respectively. This molecule also gave an IC50 at Cytochrome P450 2D6 of 502 nM.
As for `CN(C)CCN(C)C1CCN(c2nc3ccccc3n2Cc2ccc(F)cc2)CC1`, the IC50 is greater than 5000 nM against Cytochrome P450 3A4 and 6130 nM on Cytochrome P450 2D6 (read-out: IC50). Moreover, the Ki was 776 nM in data set [1] and 2.9 nM on Histamine H1 receptor. Besides, in the data set listed under Homo sapiens, the Selectivity ratio was greater than 1000.
For `Fc1ccc(Cn2c(N3CCC(n4cccc4)CC3)nc3ccccc32)cc1`, in that order: greater than 5000 nM, 1530 nM, 157 nM, 59.3 nM and greater than 1000.
`CN(c1nccc(=O)[nH]1)C1CCN(c2nc3ccccc3n2Cc2ccc(F)cc2)CC1` [MIZOLASTINE]: the Drug uptake turned out to be 6.3 ng/g in the data set on Plasma, 55.6 ng with Brain [9] and 0 ng/g in the data set on Brain [11]. The IC50 in data set [10] is 441 nM; at Cytochrome P450 2D6, greater than 20000 nM. The Ki in [1] is 7260 nM; at Histamine H1 receptor, 2.7 nM; in [2], greater than 10000 nM.
Consider `Fc1ccc(Cn2c(N3CCC(n4cccn4)CC3)nc3ccccc32)cc1`, for which the results for the IC50 on Cytochrome P450 3A4 and on Cytochrome P450 2D6 (read-out: IC50) were greater than 5000 nM and 1480 nM, respectively. Also, the Ki on Histamine H1 receptor worked out at 18.3 nM.
Turning to `Cc1ccc(/C(=C\CN2CCCC2)c2ccccn2)cc1` [TRIPROLIDINE], the Drug uptake with Plasma stood at 7.1 ng/g; in the data set on Brain [9], 55.6 ng; with Brain [11], 55.6 ng/g. Besides, the Kp at 2 h in data set [12] is 4.5.
As to `CN(CC1CCOCC1)C1CCN(c2nc3ccccc3n2Cc2ccc(F)cc2)CC1`, the Drug uptake in the data set with Plasma came to 19.2 ng/g; in the data set with Brain [9], 39.4 ng; with Brain [11], 104 ng/g; with Brain [18] it was 94 ng/g. Also, in data set [13], the bioavailability stood at 2%. Also, the values for the Activity in the data set with Rattus norvegicus [3] and with Rattus norvegicus [7] were 2.6% and 47.2%, respectively. Moreover, the IC50 on Cytochrome P450 3A4 was greater than 5000 nM; at Cytochrome P450 2D6 (read-out: IC50) it was 11000 nM. In addition, the partition ratio (Kp) at 4 h in [14] worked out at 10. In data set [15], this molecule registered a CL/F of 134 mL/min/kg. Moreover, the Time in the data set on Rattus norvegicus [4] is recorded as 110 min; in the data set with Rattus norvegicus [5], 21 min; in the data set with Rattus norvegicus [16], 11 min; in the data set with Rattus norvegicus [6] it was 0.5 min. Also, the concentration at 4 h in data set [17] came out at 9 ng/mL. Further, the Kp at 2 h in data set [12] turned out to be 6.3.
`COc1ccc(Cn2c(N3CCC(N(C)C)CC3)nc3ccccc32)cc1`: the values for the concentration for half-maximal inhibition (IC50) at Cytochrome P450 3A4 and at Cytochrome P450 2D6 (read-out: IC50) were greater than 5000 nM and 6070 nM, respectively. Also, the inhibition constant (Ki) on Histamine H1 receptor worked out at 2.4 nM.

One may read the IC50 as the concentration at which inhibition is half-maximal. The Ki is the dissociation constant of the complex between target and ligand, obtained from inhibition or displacement. In general, Kp refers to tissue or fluid exposure divided by exposure in the circulation. Usually CL/F stands for clearance divided by bioavailability, as obtained after extravascular dosing.

The values are drawn from ChEMBL document CHEMBL1154013, “Brain-penetrating 2-aminobenzimidazole H(1)-antihistamines for the treatment of insomnia” (Bioorg Med Chem Lett, 2009).
